Patent publication US8796249B2, “TGR5 modulators and methods of use thereof” (Intercept Pharmaceuticals, Inc., priority 2008, dated 2014)
Read-outs that look alike come from different tables or passages of the source. Marks after values point to notes of the source that are not given here. Each block holds one compound with its values, some of them ahead of it.

Key:
HepG2 cell = HepG2 cell cytotoxicity, ATP decrease; format: cell-based
Method: Compounds of the invention were evaluated for cytotoxicity using standard methods known in the art. Specifically, cytotoxicity was evaluated using HEPG2 cells and monitoring ATP decrease and determining the EC50 value. […]

PXR = target: T1, PXR (Homo sapiens, UniProt O75469); assay: PXR ligands competition assay (binding assay); conditions: ligands competition assay (binding assay); ref standard SR-12183
T1 sequence (O75469 1-434): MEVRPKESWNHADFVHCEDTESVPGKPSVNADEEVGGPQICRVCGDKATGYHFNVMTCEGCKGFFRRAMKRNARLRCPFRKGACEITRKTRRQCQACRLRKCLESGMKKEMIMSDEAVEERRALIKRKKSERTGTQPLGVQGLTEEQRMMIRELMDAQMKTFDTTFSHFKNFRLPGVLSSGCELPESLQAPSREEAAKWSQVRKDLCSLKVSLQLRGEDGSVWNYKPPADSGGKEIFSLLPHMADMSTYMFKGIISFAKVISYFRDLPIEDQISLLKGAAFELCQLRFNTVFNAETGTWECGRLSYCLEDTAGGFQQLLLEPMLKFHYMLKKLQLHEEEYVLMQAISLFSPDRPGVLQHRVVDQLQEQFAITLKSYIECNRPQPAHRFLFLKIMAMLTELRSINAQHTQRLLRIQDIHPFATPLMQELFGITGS
Method: (§1) The selectivity of compounds of the invention was evaluated using assay methods known in the art. Specifically, the following assay methods were used: • FXR and LXR: Coactivator Recruitment (alphascreen); • TGR5: cAMP level on human intestinal cell line (NCI-H716); • PXR: Ligands Competition assay (Binding Assay) • CAR: Coactivator Recruitment (Lanthascreen)

LXRα = target: T2, LXRα (Homo sapiens, UniProt Q13133); assay: LXR coactivator recruitment (alphascreen); format: biochemical; conditions: ref standard T0901317
T2 sequence (Q13133 1-447): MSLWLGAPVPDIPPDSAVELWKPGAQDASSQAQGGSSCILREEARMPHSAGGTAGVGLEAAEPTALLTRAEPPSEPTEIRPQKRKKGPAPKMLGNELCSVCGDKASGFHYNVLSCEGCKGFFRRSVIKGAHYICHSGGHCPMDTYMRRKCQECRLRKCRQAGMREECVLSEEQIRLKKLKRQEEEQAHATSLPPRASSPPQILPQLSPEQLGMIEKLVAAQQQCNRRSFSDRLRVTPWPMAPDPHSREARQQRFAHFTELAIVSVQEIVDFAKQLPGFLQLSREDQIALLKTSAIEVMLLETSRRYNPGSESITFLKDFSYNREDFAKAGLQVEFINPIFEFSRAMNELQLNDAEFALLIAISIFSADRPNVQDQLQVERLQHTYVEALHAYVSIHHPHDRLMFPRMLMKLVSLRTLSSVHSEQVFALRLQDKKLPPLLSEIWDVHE
Method: as §1

[1] = BA as protonated species; values from literature; cited from earlier work
[2] = […] NaCl water solution; values from literature; cited from earlier work
Intestinal Bacteria = assay: In vitro metabolic stability in human stool culture; conditions: human stool cultures
Method: Homogenized fresh human stools (500 mg) were transferred into sterile vials to which 5 mL of sterilized chopped meat-glucose medium (Scott Lab., Fiskville, R.I.) was added. BA were then added at a final concentration of 0.05 mM. Vials were incubated at 37° C.; then, at 0, 1, 2, 4, 8 and 24 h after the addition of the BA, the reaction was stopped with 150 μL of 30% KOH. The samples were centrifuged at 3500 rpm for 10 min; from the supernatant the BA were isolated by C-18 solid-phase extraction and analyzed by TLC and HPLC-ES-MS/MS.
Thin-layer chromatography (TLC), utilizing silica gel 0.25 mm thickness plates (Merck, Darmstat, Germany), was employed as the first screening test. The solvent system used for the separation of conjugated BA was composed of propionic acid/isoamyl acetate/water/N-propanol (3:4:1:2, v/v/v/v; solvent I), and that of the unconjugated BA was acetic acid/carbon tetrachloride/isopropyl ether/isoamyl acetate/water/N-propanol/benzene (1:4:6:8:2:2, v/v/v/v/v/v; solvent II).

VDR = target: T3, VDR (Homo sapiens, UniProt P11473); assay: NR selectivity assay VDR; conditions: unnamed ref standard 0.005 μM
T3 sequence (P11473 1-427): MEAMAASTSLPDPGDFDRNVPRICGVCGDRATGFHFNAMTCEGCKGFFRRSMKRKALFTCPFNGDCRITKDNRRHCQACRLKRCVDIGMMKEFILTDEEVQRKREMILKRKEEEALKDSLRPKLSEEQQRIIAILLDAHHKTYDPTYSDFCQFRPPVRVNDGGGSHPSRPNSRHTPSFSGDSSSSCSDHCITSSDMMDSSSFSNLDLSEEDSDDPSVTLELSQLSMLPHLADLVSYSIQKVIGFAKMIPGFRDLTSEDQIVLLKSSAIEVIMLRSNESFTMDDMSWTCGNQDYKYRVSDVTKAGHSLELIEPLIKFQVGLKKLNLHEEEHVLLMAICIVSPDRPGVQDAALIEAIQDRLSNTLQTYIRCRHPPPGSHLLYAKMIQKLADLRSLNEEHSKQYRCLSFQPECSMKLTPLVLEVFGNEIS

[3] = 1-Octanol/water partition coefficient (shake-flask); format: physicochemical; conditions: ionized species, pH 8
Method: Since the sulphate and sulphonated analogues are always ionised at all pH values the octanol/water partition coefficient was measured for all molecules in ionized form. 1-Octanol/water partition coefficient (log P) was evaluated using a conventional shake-flask procedure. […] The aqueous buffer was previously pre-saturated with 1-octanol, 5 ml of 1-octanol pre-saturated with water was then added and the samples were left to equilibrate for 2 weeks under continuous stirring at room temperature After centrifugation the two phases were carefully separated. BA concentration in the water phase was measured with HPLC-ESI ? MS/MS using C18 column (150 mm×2 mm i.d., 4 μm) and, as mobile phases, water containing 15 mM acetic acid pH 5 and acetonitrile. The flow rate was 150 μal/min and the column was maintained at 45° C. The mass spectrometry acquisition was performed in the multiple reaction monitoring mode using the ESI source in negative ionization.

[4] = Critical micellar concentration by surface tension (maximum bubble-pressure method); format: physicochemical; conditions: […] NaCl water solution
Method: The critical micellar concentration (CMC) was determined by surface tension (ST) measurements using a maximum bubble-pressure method which give surface tension values slightly affected by potential impurities like static methods are. The tensiometer was a […] Research Corp., Milwaukee, Wis.) equipped with two glass probes of 0.5 and 4.0 mm diameters connected to a source of nitrogen. The bubble frequency was 1 bubble/second in distilled water at 26° C. (P=2.7 atm) and the calibration was made with double-distilled water and methanol. The surface tension of BA sodium salts solutions in NaCl 0.15 M was measured at various concentrations inside the 0.13-50 mM range. The surface tension values were plotted against the logarithm of the bile salt concentration; the regression lines corresponding to the two parts of the curve (monomeric and micellar phases) were calculated using the method of least squares, and the intersection of the lines was taken as the CMC value. From the ST vs concentration curves the value of the surface tension at the CMC (equilibrium between monomers and multimers species) was also calculated giving information about the detergency power which is related to the size of the micelles with associate surface tension lowering capacity. The CMC was evaluated by surface tension measurements in non equilibrium conditions i.e. in conditions that impurities slightly affect the surface tension results (FIG. 1).

bovine serum albumin [5] = target: T4, bovine serum albumin (Bos taurus, UniProt P02769); assay: Albumin binding by equilibrium dialysis; format: in vitro ADME; conditions: 100 μM BA in 5% bovine serum albumin-saline, pH 7.2
T4 construct: dissolved at a concentration of 100 μM in 5% bovine serum albumin-saline solution (pH 7.2); from tissue; host or cells: bovine serum (only from the protein's name)
T4 sequence (P02769 25-607): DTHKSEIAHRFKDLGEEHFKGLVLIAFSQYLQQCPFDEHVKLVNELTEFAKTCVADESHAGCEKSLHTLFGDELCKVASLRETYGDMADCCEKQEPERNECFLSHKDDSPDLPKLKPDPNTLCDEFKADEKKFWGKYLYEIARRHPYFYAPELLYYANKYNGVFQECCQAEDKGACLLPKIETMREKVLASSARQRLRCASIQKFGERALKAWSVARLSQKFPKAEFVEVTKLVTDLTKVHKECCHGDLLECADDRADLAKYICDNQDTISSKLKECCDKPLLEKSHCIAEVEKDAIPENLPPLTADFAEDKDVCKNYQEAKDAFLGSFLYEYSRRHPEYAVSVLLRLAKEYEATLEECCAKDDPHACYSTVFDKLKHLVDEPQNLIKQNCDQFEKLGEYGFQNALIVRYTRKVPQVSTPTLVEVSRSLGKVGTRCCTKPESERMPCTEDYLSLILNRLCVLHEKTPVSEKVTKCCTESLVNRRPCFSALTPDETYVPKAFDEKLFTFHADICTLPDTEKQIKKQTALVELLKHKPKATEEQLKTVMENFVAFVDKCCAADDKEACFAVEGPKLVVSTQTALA
Method: The extent of albumin binding was evaluated by equilibrium dialysis at a fixed BA-albumin ratio. BA was dissolved at a concentration of 100 μM in 5% bovine serum albumin-saline solution (pH 7.2) and left to stand for 24 h at 25° C. Two milliliters of this solution was dialyzed in cellulose sacs having a molecular weight cut-off of 12-14,000 against 25 ml of saline solution. The system was equilibrated by mechanical gently shaking for 72 h at 25° C. BA concentrations of the dialyzed solution (corresponding to the free unbound fraction) and of the starting solution were determined with HPLC-ESI-MS/MS in the same conditions of the previous analysis. The percent of albumin binding was calculate from the initial BA concentration and from the unbound concentration in the dialyzed fraction. All these compounds never less present an albumin binding compatible with a relatively fast hepatic uptake, similarly to natural occurring BA. Accordingly different kinetics (slower) of the liver uptake is expected.

PPARδ = target: T5, PPARδ (Homo sapiens, UniProt Q03181); assay: NR selectivity assay PPARδ; conditions: unnamed ref standard 0.004 μM
T5 sequence (Q03181 1-441): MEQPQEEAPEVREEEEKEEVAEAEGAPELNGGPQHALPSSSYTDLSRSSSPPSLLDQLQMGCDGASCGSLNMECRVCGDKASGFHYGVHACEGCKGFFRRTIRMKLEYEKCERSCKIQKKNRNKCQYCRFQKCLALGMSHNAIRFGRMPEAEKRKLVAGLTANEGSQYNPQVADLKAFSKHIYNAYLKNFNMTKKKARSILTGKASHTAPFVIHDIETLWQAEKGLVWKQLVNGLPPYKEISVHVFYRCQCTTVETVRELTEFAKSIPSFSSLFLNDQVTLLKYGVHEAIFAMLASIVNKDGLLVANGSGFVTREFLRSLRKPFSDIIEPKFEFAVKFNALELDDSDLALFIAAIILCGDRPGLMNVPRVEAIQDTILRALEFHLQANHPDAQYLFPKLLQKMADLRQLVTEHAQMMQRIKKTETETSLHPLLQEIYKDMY

CAR = target: T6, CAR (Homo sapiens, UniProt Q14994); assay: CAR coactivator recruitment (Lanthascreen); format: biochemical
T6 sequence (Q14994 1-352): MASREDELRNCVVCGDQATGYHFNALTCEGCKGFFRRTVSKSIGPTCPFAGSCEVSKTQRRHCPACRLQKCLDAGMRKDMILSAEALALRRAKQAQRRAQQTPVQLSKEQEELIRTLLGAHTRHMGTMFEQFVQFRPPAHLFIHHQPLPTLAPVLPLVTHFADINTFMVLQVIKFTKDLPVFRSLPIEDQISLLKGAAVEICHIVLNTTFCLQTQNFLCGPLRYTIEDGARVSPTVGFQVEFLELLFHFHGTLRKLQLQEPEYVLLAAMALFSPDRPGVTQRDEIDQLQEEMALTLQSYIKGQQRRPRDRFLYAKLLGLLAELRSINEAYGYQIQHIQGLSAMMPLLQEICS
Method: as §1

[6] = Previous study of oleanolic acid (OA) in animals; format: in vivo
Method: Therefore, OA is administered at the dose of 50 mg/kg/d in this study.

[7] = ionized species; values from literature; cited from earlier work
Water solubility = format: physicochemical; conditions: BA as protonated species, 0.1 M HCl, pH 1; hs = highly soluble, not evaluated
Method: Solid compound (BA) was suspended in 5 ml of 0.1 M HCl. […] The flow rate was 150 μl/min. The mass spectrometry acquisition was performed in the multiple reaction monitoring mode using the ESI source in negative ionization. Water solubility was expressed as μmol/liter.
The water solubility was measured for the insoluble protonated species of carboxylated bile acids at a pH 1.

bovine serum albumin [8] = target: T4, bovine serum albumin; conditions: values from literature; cited from earlier work
[9] = coactivator recruitment (Lanthascreen), ref standard CITCO

Structure (SMILES): C[C@H](CCC(=O)O)[C@H]1CC[C@H]2[C@@H]3[C@H](O)C[C@@H]4C[C@H](O)CC[C@]4(C)[C@H]3CC[C@]12C [CDCA, chenodeoxycholic acid]
- half-life time (Intestinal Bacteria): almost one hour
- LXRα EC50 (LXRα): No
- VDR EC50 (VDR): No
- LogPA- (1-octanol-water partition coefficient) [3]: 2.2
- CMC […] Na+ [4]: 3.2 mM
- STCMC (surface tension at CMC) [4]: 45.5 Dyne/cm
- Albumin Binding (bovine serum albumin [5]): 93%
- PPARδ EC50 (PPARδ): No
- EC50 (CAR): > 250 µM

Structure (SMILES): C[C@H](CCC(=O)O)[C@H]1CC[C@H]2[C@@H]3CC[C@@H]4C[C@H](O)CC[C@]4(C)[C@H]3CC[C@]12C [LCA, lithocholic acid]
- LXRα EC50 (LXRα): No
- PPARδ EC50 (PPARδ): No
- CAR EC50 (CAR; [9]): No

Structure (SMILES): CC1(C)CC[C@]2(C(=O)O)CC[C@]3(C)C(=CC[C@@H]4[C@@]5(C)CC[C@H](O)C(C)(C)[C@@H]5CC[C@]43C)[C@@H]2C1 [OA, oleanolic acid]
- food aversion [6]: did not cause food aversion
- toxicity ([6]; dose of 100 mg/kg/day): some signs of toxicity
- tolerability ([6]; lower dose than 100 mg/kg/day): well tolerated

Structure (SMILES): CN[C@@H]1C[C@H]2O[C@@](C)([C@@H]1OC)n1c3ccccc3c3c4c(c5c6ccccc6n2c5c31)C(=O)NC4 [Staurosporine, reference compound]
- EC50 (HepG2 cell; human): 15 µM

Structure (SMILES): C[C@H](CCC(=O)O)[C@H]1CC[C@H]2[C@@H]3[C@@H](O)C[C@@H]4C[C@H](O)CC[C@]4(C)[C@H]3CC[C@]12C [UDCA, reference compound]
- EC50 (HepG2 cell): > 1000 µM
- LXRα EC50 (LXRα): No
- Ws (water solubility) (Water solubility): 7.5 µM
- VDR EC50 (VDR): No
- LogPA- (1-octanol-water partition coefficient) [3]: 2.2
- CMC […] Na+ [4]: 6.0 mM
- STCMC (surface tension at CMC) [4]: 50.5 Dyne/cm
- Albumin Binding (bovine serum albumin [5]): 94%
- PPARδ EC50 (PPARδ): No
- EC50 (CAR; [9]): > 250 µM

More lines, main results first:

- PXR EC50 (PXR): No
- LXRα EC50 (LXRα): No
Structure (SMILES): C[C@H](CCC(=O)O)[C@H]1CC[C@H]2[C@@H]3[C@H](O)C[C@@H]4C[C@H](O)CC[C@]4(C)[C@H]3C[C@H](O)[C@]12C [CA]
- EC50 (HepG2 cell; read-out: HepG2 cell Cytotoxicity ATP decrease EC50): > 1000 µM
- Ws (water solubility) [1]: 273* μM
- CMC […] Na+ [2]: 11* mM

- Ws (water solubility) (Water solubility): hs
Structure (SMILES): C[C@H](CCC(=O)NCCS(=O)(=O)O)[C@H]1CC[C@H]2[C@@H]3[C@H](O)C[C@@H]4C[C@H](O)CC[C@]4(C)[C@H]3CC[C@]12C [TCDCA]
- LogPA- (1-octanol-water partition coefficient) [7]: 0.9*
- Albumin Binding (bovine serum albumin [8]): 70* %
- CMC […] Na+ [2]: 3.0* mM

- Ws (water solubility) (Water solubility): hs
Structure (SMILES): C[C@H](CCC(=O)NCCS(=O)(=O)O)[C@H]1CC[C@H]2[C@@H]3[C@@H](O)C[C@@H]4C[C@H](O)CC[C@]4(C)[C@H]3CC[C@]12C [TUDCA]
- LogPA- (1-octanol-water partition coefficient) [7]: 1.1*
- Albumin Binding (bovine serum albumin [8]): 67* %
- CMC […] Na+ [2]: 2.2* mM
